Experimental findings from patent US20070054353A1, “Nuclear receptor transcriptional corepressor and uses thereof” (priority 2002, published 2007) are described below.

Type in all cases: cell-based
For experiment [1], the target named is T1, PR (Homo sapiens, UniProt P06401).
T1 construct: expressed in transfected cells; host or cells: COS-7
T1 sequence (P06401 1-933): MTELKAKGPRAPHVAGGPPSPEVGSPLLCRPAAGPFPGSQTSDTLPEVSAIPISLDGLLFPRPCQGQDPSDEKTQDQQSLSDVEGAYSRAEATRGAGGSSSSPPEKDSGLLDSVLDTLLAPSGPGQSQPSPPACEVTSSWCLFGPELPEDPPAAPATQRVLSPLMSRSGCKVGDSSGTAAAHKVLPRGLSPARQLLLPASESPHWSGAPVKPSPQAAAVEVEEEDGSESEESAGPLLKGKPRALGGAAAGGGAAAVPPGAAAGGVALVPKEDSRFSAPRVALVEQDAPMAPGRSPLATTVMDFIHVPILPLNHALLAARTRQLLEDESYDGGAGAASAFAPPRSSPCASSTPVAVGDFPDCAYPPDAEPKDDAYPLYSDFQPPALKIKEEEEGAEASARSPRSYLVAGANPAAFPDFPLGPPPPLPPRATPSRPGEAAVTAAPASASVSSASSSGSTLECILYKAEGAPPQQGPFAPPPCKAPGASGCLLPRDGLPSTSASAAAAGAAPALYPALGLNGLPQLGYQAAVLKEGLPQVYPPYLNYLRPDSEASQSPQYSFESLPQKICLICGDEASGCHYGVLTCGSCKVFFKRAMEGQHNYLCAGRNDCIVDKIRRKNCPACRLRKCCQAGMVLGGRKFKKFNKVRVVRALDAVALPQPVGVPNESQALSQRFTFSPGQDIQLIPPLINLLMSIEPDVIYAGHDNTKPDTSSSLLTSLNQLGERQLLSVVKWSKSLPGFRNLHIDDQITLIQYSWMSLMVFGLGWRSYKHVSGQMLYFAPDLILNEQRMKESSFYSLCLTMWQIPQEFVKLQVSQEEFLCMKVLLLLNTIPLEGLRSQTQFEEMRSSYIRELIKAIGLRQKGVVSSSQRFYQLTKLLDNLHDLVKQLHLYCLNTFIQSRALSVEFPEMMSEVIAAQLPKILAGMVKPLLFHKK
Kind of experiment: Transient transfection luciferase reporter, PR transactivation in COS-7 cells. The note with it: TSA 3 μM, COS-7 cells. The method, then: (§1) All cell lines were cultured under the recommended conditions. COS-7 cells grown in […] in DMEM without phenol red, supplemented with 10% FBS were transfected in medium without serum with lipofectamine 2000 (Invitrogen, Burlington, Ont.) with 100 ng of nuclear receptor expression vectors as indicated, 200 ng of TIF-2 or TIF-2.1, as indicated, 250 ng of reporter plasmid, 250 ng of infemal control vector pCMV-βgal, and various concentrations of LCoR/pSG5 or LCoR-LSKAA/pSG5 expression vectors and pSG5 carrier. Medium was replaced 24 h after transfection by a medium containing charcoal-stripped serum and ligand (100 nM) and TSA (3 μM) for 18 h, as indicated. Cells were harvested in 200 […] of reporter lysis buffer (Promega).
(§2) COS-7 cells were cotransfected with expression vectors for ERα HEG0 (A and C) or GR (D) or PR (F) or VDR (H), ERE3-TATA-pXP2 (A and C), GRE5/pXP2 (D and F) or VDRE3tk/pXP2 (H) luciferase reporter vectors, pCMV-β-gal as internal control, and LCoR/pSG5 or LSKAA/pSG5 expression vectors as indicated. Cells were treated with 10^−7M of hormones (solid bars) or vehicle (open bars). Normalized luciferase activities (RLU) are the means±SEM from at least 3 experiments. […] Cells were transfected as in FIG. 5A with LCoR, TIF-2 or TIF2.1 as indicated. […]
In general terms: Reporter assays use an easily measured gene product as a stand-in for the process of interest.

For experiment [2], the system named is 5×17 mer-tk promoter. Kind of experiment: GAL4-LCoR repression of 5×17 mer-tk promoter in COS-7 cells. The note with it: TSA 3 μM. The protocol: as §1, §2
Experiment [3] deals with T2, GR (Homo sapiens, UniProt P04150).
T2 construct: expressed in transfected cells; host or cells: COS-7
T2 sequence (P04150 1-777): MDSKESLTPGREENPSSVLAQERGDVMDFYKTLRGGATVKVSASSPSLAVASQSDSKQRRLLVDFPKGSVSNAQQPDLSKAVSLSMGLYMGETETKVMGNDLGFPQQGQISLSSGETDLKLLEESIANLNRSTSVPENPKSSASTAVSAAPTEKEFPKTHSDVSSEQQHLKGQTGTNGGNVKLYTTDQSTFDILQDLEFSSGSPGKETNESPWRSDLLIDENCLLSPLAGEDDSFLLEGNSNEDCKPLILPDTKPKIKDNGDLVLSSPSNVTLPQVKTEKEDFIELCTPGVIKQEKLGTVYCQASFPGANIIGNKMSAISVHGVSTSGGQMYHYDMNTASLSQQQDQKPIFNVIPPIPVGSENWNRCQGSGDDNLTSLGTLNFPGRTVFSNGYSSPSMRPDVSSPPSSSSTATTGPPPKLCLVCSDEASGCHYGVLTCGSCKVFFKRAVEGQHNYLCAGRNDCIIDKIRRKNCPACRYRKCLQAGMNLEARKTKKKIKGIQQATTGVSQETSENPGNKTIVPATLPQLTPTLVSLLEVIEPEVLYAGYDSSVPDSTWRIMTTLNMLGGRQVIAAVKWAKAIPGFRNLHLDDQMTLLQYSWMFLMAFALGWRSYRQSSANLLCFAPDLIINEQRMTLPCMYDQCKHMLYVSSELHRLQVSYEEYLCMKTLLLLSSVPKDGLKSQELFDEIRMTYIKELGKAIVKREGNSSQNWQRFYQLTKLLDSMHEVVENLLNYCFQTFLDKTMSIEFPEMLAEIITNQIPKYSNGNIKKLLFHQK
Kind of experiment: Transient transfection luciferase reporter, GR transactivation in COS-7 cells. The following applies: TSA 3 μM, COS-7 cells. The method, then:
as §1, §2

For the compound `CC(/C=C/C(=O)NO)=C\[C@@H](C)C(=O)c1ccc(N(C)C)cc1` [TSA, trichostatin A], in experiment [1], the “effect on LCoR repression of PR function” value is “little or no effect”. Also, the “effect on repression by GAL-LCoR” value in experiment [2] is given as “little or no effect”. Further, the “effect on LCoR-dependent repression of GR function” value in experiment [3] is “completely abolished”.
